This test deals with T1, human orexin type 2 receptor (Homo sapiens, UniProt O43614).
T1 construct: expressed in transfected cells
T1 sequence (O43614 1-444): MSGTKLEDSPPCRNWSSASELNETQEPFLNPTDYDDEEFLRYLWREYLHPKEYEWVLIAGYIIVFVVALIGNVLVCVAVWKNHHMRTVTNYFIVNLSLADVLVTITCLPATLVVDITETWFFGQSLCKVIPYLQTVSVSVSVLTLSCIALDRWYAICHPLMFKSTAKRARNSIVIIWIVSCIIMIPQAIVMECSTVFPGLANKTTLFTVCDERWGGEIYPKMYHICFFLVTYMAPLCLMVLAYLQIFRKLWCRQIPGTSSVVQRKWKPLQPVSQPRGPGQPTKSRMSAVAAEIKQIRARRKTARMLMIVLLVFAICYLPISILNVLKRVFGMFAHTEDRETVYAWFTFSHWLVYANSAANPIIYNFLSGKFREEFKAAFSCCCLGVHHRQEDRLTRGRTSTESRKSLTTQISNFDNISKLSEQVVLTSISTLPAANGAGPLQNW
Description: Measurement of orexin type 2 receptor agonist activity (calcium indicator fluorescence, CHO cells forcibly expressing human OX2 receptor). The test is classed as cell-based. The settings on record: compound at 3 μM; 0% = DMSO, 100% = orexin A (human) 10 nM. An outline of the steps: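 Agonist response normalised between vehicle (0%) and orexin A at 10 nM final (100%), from kinetic Fluo-4 calcium signals recorded for about 2 min after compound addition. Cells: stable human OX2R CHO clone, dye-loaded 30 min at 37 °C plus 30 min at room temperature.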
In the case of `CCS(=O)(=O)N[C@@H]1[C@H](Cc2cccc(-c3cccc(Cl)c3)c2F)N(C(=O)C(C)(C)O)CC1(F)F` [Example 68, N-[(2S,3R)-2-[(3′-chloro-2-fluoro[1,1′-biphenyl]-3-yl)methyl]-4,4-difluoro-1-(2-hydroxy-2-methylpropanoyl)pyrrolidin-3-yl]ethanesulfonamide], the “OX2R agonist activity (3 μM, %)” value is reported as 106%.

Turning to `Cc1cccc(-c2cccc(C[C@H]3[C@@H](NS(=O)(=O)C4CC4)C(F)(F)CN3C(=O)C3(O)CCC3)c2F)c1` [Example 430, N-[(2S,3R)-4,4-difluoro-2-[(2-fluoro-3′-methyl[1,1′-biphenyl]-3-yl)methyl]-1-(1-hydroxycyclobutane-1-carbonyl)pyrrolidin-3-yl]cyclopropanesulfonamide], the “OX2R agonist activity (3 μM, %)” value is recorded as 96%.

For `CCS(=O)(=O)N[C@@H]1[C@H](Cc2cccc(-c3cc(F)c(F)cc3F)c2F)N(C(=O)C2CCO2)CC1(F)F` (stereo partly drawn) [Example 469, N-{(2S,3R)-4,4-difluroo-1-(oxetane-2-carbonyl)-2-[(2,2′,4′5′-tetrafluoro[1,1′-biphenyl]-3-yl)methyl]pyrrolidin-3-yl}ethanesulfonamide], the “OX2R agonist activity (3 μM, %)” value is 91%.

As to `CCS(=O)(=O)N[C@H]1[C@@H](F)CN(C(=O)N(C)C)[C@H]1Cc1cccc(-c2cccc(F)c2F)c1F` [Example 330, (2S,3R,4S)-3-[(ethanesulfonyl)amino]-4-fluoro-N,N-dimethyl-2-[(2,2′,3′-trifluoro[1,1′-biphenyl]-3-yl)methyl]pyrrolidine-1-carboxmaide], the “OX2R agonist activity (3 μM, %)” value is 98%.

Consider `CCS(=O)(=O)N[C@H]1[C@@H](F)CN(C(=O)C2CCO2)[C@H]1Cc1cccc(-c2cccc(Cl)c2F)c1F` (stereo partly drawn) [Example 423, N-[(2S,3R,4S)-2-[(3′-chloro-2,2′-difluoro[1,1′-biphenyl]-3-yl)methyl]-4-fluoro-1-(oxetane-2-carbonyl)pyrrolidin-3-yl]ethanesulfonamide], for which the “OX2R agonist activity (3 μM, %)” value turned out to be 90%.

On to `CCS(=O)(=O)N[C@H]1[C@@H](F)CN(C(=O)C2CCO2)[C@H]1Cc1cccc(-c2cccc(Cl)c2)c1F` (stereo partly drawn) [Example 368, N-[(2S,3R,4S)-2-[(3′-chloro-2-fluoro[1,1′-biphenyl]-3-yl)methyl]-4-fluoro-1-(oxetane-2-carbonyl)pyrrolidin-3-yl]ethanesulfonamide], for which the “OX2R agonist activity (3 μM, %)” value was determined as 95%.

Consider `CS(=O)(=O)N[C@@H]1[C@H](Cc2cccc(-c3ccccc3)c2F)N(C(=O)C2CCO2)CC1(F)F` (stereo partly drawn) [Example 79, N-[(2S,3R)-4,4-difluoro-2-[(2-fluoro[1,1′-biphenyl]-3-yl)methyl]-1-(oxetane-2-carbonyl)pyrrolidin-3-yl]methanesulfonamide], for which the “OX2R agonist activity (3 μM, %)” value is recorded as 102%.

As for `CCS(=O)(=O)N[C@@H]1[C@H](Cc2cccc(-c3cccc(OC)c3)c2F)N(C(=O)C2(O)CCC2)CC1(F)F` [Example 513, N-[(2S,3R)-4,4-difluoro-2-[(2-fluoro-3′-methoxy[1,1′-biphenyl]-3-yl)methyl]-1-(1-hydroxycyclobutane-1-carbonyl)pyrrolidin-3-yl]ethanesulfonamide], the “OX2R agonist activity (3 μM, %)” value came to 97%.

As to `CCS(=O)(=O)N[C@H]1[C@@H](F)CN(C(=O)N(C)C)[C@H]1Cc1cccc(-c2cc(F)ccc2F)c1F` [Example 294, (2S,3R,4S)-3-[(ethanesulfonyl)amino]-4-fluoro-N,N-dimethyl-2-[(2,2′,5′-trifluoro[1,1′-biphenyl]-3-yl)methyl]pyrrolidine-1-carboxamide], the “OX2R agonist activity (3 μM, %)” value is recorded as 96%.

As for `CS(=O)(=O)N[C@@H]1[C@H](Cc2cccc(-c3ccccc3)c2F)N(C(=O)C2CC(F)C2)CC1(F)F` (stereo partly drawn) [Example 441, N-[(2S,3R)-4,4-difluoro-2-[(2-fluoro[1,1′-biphenyl]-3-yl)methyl]-1-(3-fluorocyclobutane-1-carbonyl)pyrrolidin-3-yl]methanesulfonamide], the “OX2R agonist activity (3 μM, %)” value was 93%.

With `CCS(=O)(=O)N[C@@H]1[C@H](Cc2cccc(-c3cccc(F)c3)c2F)N(C(=O)N2CCC2)CC1(F)F` [Example 287, N-{(2S,3R)-1-(azetidine-1-carbonyl)-2-[(2,3′-difluoro[1,1′-biphenyl]-3-yl)methyl]-4,4-difluoropyrrolidin-3-yl}ethanesulfonamide], the “OX2R agonist activity (3 μM, %)” value was 94%.

On to `CN(C)C(=O)N1CC(F)(F)[C@H](NS(=O)(=O)N(C)C)[C@@H]1Cc1cccc(-c2cccc(F)c2)c1F` [Example 528, (2S,3R)-2-[(2,3′-difluoro[1,1′-biphenyl]-3-yl)methyl]-3-[(dimethylsulfamoyl)amino]-4,4-difluoro-N,N-dimethylpyrrolidine-1-carboxamide], for which the “OX2R agonist activity (3 μM, %)” value is on record as 83%.

For `CS(=O)(=O)N[C@@H]1[C@H](Cc2csc(-c3cc(F)cc(F)c3)n2)N(C(=O)C2(O)CCC2)CC1(F)F` (racemic) [Example 136, rac-N-[(2S,3R)-2-{[2-(3,5-difluorophenyl)-1,3-thiazol-4-yl]methyl}-4,4-difluoro-1-(1-hydroxycyclobutane-1-carbonyl)pyrrolidin-3-yl]methanesulfonamide], the “OX2R agonist activity (3 μM, %)” value was 87%.

Consider `CCS(=O)(=O)N[C@@H]1[C@H](Cc2cccc(-c3ccccc3)c2F)N(C(=O)N2CCC2)CC1(F)F` [Example 228, N-{(2S,3R)-1-(azetidine-1-carbonyl)-4,4-difluoro-2-[(2-fluoro[1,1′-biphenyl]-3-yl)methyl]pyrrolidin-3-yl}ethanesulfonamide], for which the “OX2R agonist activity (3 μM, %)” value was found to be 99%.

For the molecule `CS(=O)(=O)N[C@@H]1[C@H](Cc2cccc(-c3cccc(Cl)c3F)c2F)N(C(=O)C2CCO2)CC1(F)F` (stereo partly drawn) [Example 263, N-[(2S,3R)-2-[(3′-chloro-2,2′-difluoro[1,1′-biphenyl]-3-yl)methyl]-4,4-difluoro-1-(oxetane-2-carbonyl)pyrrolidin-3-yl]methanesulfonamide], the “OX2R agonist activity (3 μM, %)” value came out at 103%.

On to `CS(=O)(=O)N[C@H]1[C@@H](F)CN(C(=O)C2CCO2)[C@H]1Cc1cccc(-c2cccc(F)c2)c1F` (stereo partly drawn) [Example 323, N-[(2S,3R,4S)-2-[(2,3′-difluoro[1,1′-biphenyl]-3-yl)methyl]-4-fluoro-1-(oxetane-2-carbonyl)pyrrolidin-3-yl]methanesulfonamide], for which the “OX2R agonist activity (3 μM, %)” value came to 92%.

As to `CCS(=O)(=O)N[C@@H]1[C@H](Cc2cccc(-c3cccc(F)c3)c2)N(C(=O)[C@H]2CCCO2)CC1(F)F` [Example 88, N-{(2S,3R)-4,4-difluoro-2-[(3′-fluoro[1,1′-biphenyl]-3-yl)methyl]-1-[(2R)-oxolane-2-carbonyl]pyrrolidin-3-yl}ethanesulfonamide], the “OX2R agonist activity (3 μM, %)” value worked out at 98%.

For the molecule `CCS(=O)(=O)N[C@H]1[C@@H](F)CN(C(=O)N(C)C)[C@H]1Cc1cccc(-c2cc(F)cc(F)c2)c1F` [Example 329, (2S,3R,4S)-3-[(ethanesulfonyl)amino]-4-fluoro-N,N-dimethyl-2-[(2,3′,5′-trifluoro[1,1′-biphenyl]-3-yl)methyl]pyrrolidine-1-carboxamide], the “OX2R agonist activity (3 μM, %)” value is 88%.

`CCS(=O)(=O)N[C@@H]1[C@H](Cc2cccc(-c3cccc(F)c3F)c2F)N(C(=O)C2CC(F)C2)CC1(F)F` (stereo partly drawn) [Example 349, N-{(2S,3R)-4,4-difluoro-1-(3-fluorocyclobutane-1-carbonyl)-2-[(2,2′,3′-trifluoro[1,1′-biphenyl]-3-yl)methyl]pyrrolidin-3-yl}ethanesulfonamide]: the “OX2R agonist activity (3 μM, %)” value stood at 98%.

For the origin of these results see patent US20230040770A1, “HETEROCYCLIC COMPOUND AND USE THEREOF” (TAKEDA PHARMACEUTICAL COMPANY LIMITED, priority 2019, published 2023).
